# Experimental data as given in US20090029856A1, “Hinokitiol As A Plant Pesticide” (priority 2007, published 2009).
# Read-outs that look alike come from different tables or passages of the source.
# How the values were obtained:
# [1] = system: 2-week-old cucumber plants; conditions: in vivo
# Protocol: Ethoxylated fatty esters (e.g., polyethylene 20 sorbitan monooleate, polyethylene 20 sorbitan monolaurate), ethoxylated alcohols (e.g., Genapol UD-80, UD 110, O-100 and O-200, Clariant Corporation) were chosen for phytotoxic screening in this study. […] These formulations were diluted 100 times with tap water and then sprayed on 2-week-old cucumber plants. […] Precipitation would happen to Oxylignin (sodium salt) when pH reached to 8.0 and then increased with pH.
# [2] = Sun exposure experiment in vials, HPLC analysis of hinokitiol; assay type: physicochemical
# Protocol: HPLC analysis: HPLC systems include waters 2695 separation modules with auto sampler, waters 2996 photodiode array detector, Masslynx software and Sunfire™ C18 column (5 μm, 4.6×150 mm). […] Gradient mobile phase was adopted. […] Hinokitiol complex with citric acid was monitored at 320 nm. The column temperature was kept at 30° C. during the experiment. […] The vials were put on a rack. […] After sunlight exposure, rack and vials were immediately stored at 4° C. or subsamples were taken for HPLC analysis. Visual observation was recorded before subsamples were taken. Vials were vortexed very well before subsamples were taken. Triplicates were carried out for each sample. All sun light exposure in the later studies was the same unless stated. Temperature in all this studies varied between 75 to 95° F.
substance,measurement,setting,value
polyethylene 20 sorbitan monooleate,phytotoxicity (shown or not),[1],did not show any obvious phytotoxicity
Humic acid,phytotoxicity on 2-week-old cucumber plants,[1]; pH 10,no obvious phytotoxicity
same,Degradation of hinokitiol (%),[2],40 ± 1%
same,degradation of hinokitiol in the formulation compared with other UV protection agents,[2],much slower
same,Degradation of hinokitiol (%),[2]; pH 7.4,40 ± 3%
same,Degradation of hinokitiol (%),[2]; pH 8.29,30 ± 2%
same,Degradation of hinokitiol (%),[2]; pH 9.61,21 ± 4%
